Data on one compound can be found in patent EP0194905A1, “5',5'''-P1,P4-diadenosine-tetraphosphate alpha-,beta-phosphorylase and its use in the preparation of isotope-labelled nucleotides” (priority 1985, dated 1986).

In this test the target is T1, Ap4A-phosphorylase (Saccharomyces cerevisiae, UniProt P16550).
T1 construct: l'Ap4A phosphorylase est constituée d'une seule chaîne; endogenous in cells; host or cells: Saccharomyces cerevisiae yeast cells; enzyme purified by ammonium sulfate, DEAE-Sephacel, Sephadex G-100, hydroxyapatite and Sephadex G-75 superfine
T1 sequence (P16550 1-321): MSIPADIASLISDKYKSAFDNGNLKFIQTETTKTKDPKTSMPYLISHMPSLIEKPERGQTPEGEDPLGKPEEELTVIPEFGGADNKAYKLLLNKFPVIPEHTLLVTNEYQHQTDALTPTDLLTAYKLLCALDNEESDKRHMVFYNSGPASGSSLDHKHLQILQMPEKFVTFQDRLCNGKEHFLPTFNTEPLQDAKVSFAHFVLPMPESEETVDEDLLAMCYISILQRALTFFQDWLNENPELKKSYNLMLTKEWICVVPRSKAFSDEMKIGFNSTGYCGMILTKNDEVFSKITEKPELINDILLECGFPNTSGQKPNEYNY
In words: NDP-P* exchange reaction catalysed by Ap4A-phosphorylase. It is filed as biochemical. To be noted: AMPS versus ADP. An excerpt:
On a estimé les constantes de Michaelis Km et les vitesses d'échange pour différents NDP au pH optimum, lequel varie en fonction des substrats. Les résultats obtenus sont rassemblés dans le tableau Il ci-après ainsi que les conditions expérimentales.

For the compound `Nc1ncnc2c1ncn2[C@@H]1O[C@H](COP(=O)(O)OS(=O)(=O)O)[C@@H](O)[C@H]1O` [AMPS, adénosine 5'-phosphosulfate], the “rapport V/km, fold higher than for ADP” value is recorded as around 5 fois.
